The values below come from publication PMC8294059, “Identification and Immune Assessment of T Cell Epitopes in Five Plasmodium falciparum Blood Stage Antigens to Facilitate Vaccine Candidate Selection and Optimization” (Frontiers in Immunology, 2021).

A word on the IC50: it is the concentration that gives 50% inhibition.

Where a SMILES comes first, the peptide text is derived from it.

The first experiment deals with HLA-B*4402 (Homo sapiens, UniProt P01889, A223V/A65T/A93T/A95T/D201E/D98Y/E176V/E187L/E204Q/E69K/G107R/H137Y/K202T/L105A/L119I/N104T/N87E/Q56L/Q94N/R106L/R155S/R180D/S101N/S121R/S35A/S48T/T118I/V36M/W191S/Y140D/Y91S). The experiment in a line: In vitro class I HLA binding assay (fluorescence polarization competition). To be noted: allele B*4402; fluorescence polarization competition. In outline: (§1)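 Cell-free competition assay: HLA heat-treated 53°C for 15 min to strip endogenous peptides, then mixed with fluorescent high-affinity control peptide and test peptides for 72 h to equilibrium. Displacement read by fluorescence polarization as percent inhibition; IC50 derived from a concentration range.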
On the technique in general: In fluorescence polarisation assays a small probe gives low polarisation when free and higher when bound to something large.
In the case of DEYIHKLIL [RH5_361], the “IC50 (nM), in vitro HLA binding affinity” value was “Non-binder”.

Still in this experiment, the particulars now being: allele B*4402; fluorescence polarization competition; read-out: IC50 (nM), in vitro HLA binding affinity.
Regarding `CC[C@H](C)[C@H](NC(=O)[C@H](Cc1ccc(O)cc1)NC(=O)[C@H](CC(=O)O)NC(=O)[C@H](CO)NC(=O)[C@@H](NC(=O)[C@@H](NC(=O)[C@@H](NC(=O)[C@H](CCC(=O)O)NC(=O)[C@@H](N)CO)[C@@H](C)CC)[C@@H](C)O)[C@@H](C)CC)C(=O)O` [CYRPA_147] (H-SEITISDYI-OH), the IC50 came out at 5380 nM.
With `CC(C)C[C@H](NC(=O)[C@H](Cc1ccc(O)cc1)NC(=O)[C@H](Cc1c[nH]cn1)NC(=O)[C@@H](NC(=O)[C@H](CC(C)C)NC(=O)[C@H](CO)NC(=O)[C@H](CCCCN)NC(=O)[C@H](CC(N)=O)NC(=O)[C@H](CCC(=O)O)NC(=O)[C@@H](N)Cc1ccc(O)cc1)[C@@H](C)O)C(=O)O` [RIPR_0226] (H-YENKSLTHYL-OH), the IC50 is 112000 nM.
In the case of `CC[C@H](C)[C@H](N)C(=O)N[C@@H](CCC(=O)O)C(=O)N[C@H](C(=O)N[C@H](C(=O)N[C@@H](CCC(=O)O)C(=O)N[C@@H](CCCNC(=N)N)C(=O)N[C@@H](CO)C(=O)N[C@@H](CC(N)=O)C(=O)N[C@@H](Cc1ccc(O)cc1)C(=O)O)C(C)C)[C@@H](C)CC` [AMA1_097] (H-IEIVERSNY-OH), the IC50 came to 8030 nM.
For the compound `CC[C@H](C)[C@H](NC(=O)[C@H](CC(=O)O)NC(=O)[C@H](CCC(N)=O)NC(=O)[C@@H](NC(=O)[C@H](CS)NC(=O)[C@H](CCCNC(=N)N)NC(=O)[C@H](Cc1ccc(O)cc1)NC(=O)[C@H](CC(N)=O)NC(=O)[C@H](CCC(=O)O)NC(=O)[C@@H](N)CCC(=O)O)[C@@H](C)O)C(=O)O` [RIPR_0283] (H-EENYRCTQDI-OH), the IC50 worked out at 674000 nM.
Still for that read-out and setting: as for `CC[C@H](C)[C@H](NC(=O)[C@H](CCC(=O)O)NC(=O)[C@@H](N)CC(N)=O)C(=O)N[C@@H](CC(=O)O)C(=O)N[C@@H](CCCCN)C(=O)N[C@@H](CC(C)C)C(=O)N[C@H](C(=O)N[C@@H](Cc1ccccc1)C(=O)N[C@@H](CO)C(=O)N[C@@H](CC(C)C)C(=O)O)[C@@H](C)O` [RIPR_0031] (H-NEIDKLTFSL-OH), the figure is 332000 nM; as for `CSCC[C@H](NC(=O)[C@H](CCC(=O)O)NC(=O)[C@@H](N)CC(=O)O)C(=O)N[C@@H](CC(C)C)C(=O)N[C@@H](CC(=O)O)C(=O)N1CCC[C@H]1C(=O)N[C@@H](CCC(=O)O)C(=O)N[C@@H](C)C(=O)N[C@@H](CO)C(=O)N[C@@H](Cc1ccccc1)C(=O)O` [AMA1_593] (H-DEMLDPEASF-OH), 11500 nM.
On the same count and under the same terms, next, `CC(C)C[C@H](N)C(=O)N[C@@H](CCC(=O)O)C(=O)N[C@@H](Cc1ccccc1)C(=O)N[C@H](C(=O)N[C@@H](CS)C(=O)N[C@@H](CO)C(=O)N[C@@H](CC(N)=O)C(=O)N[C@@H](CCCNC(=N)N)C(=O)N[C@@H](CC(=O)O)C(=O)N[C@@H](Cc1ccccc1)C(=O)O)C(C)C` [CYRPA_264] (H-LEFVCSNRDF-OH): 7460 nM.
On the same count and under the same terms, next, `CC(C)C[C@H](NC(=O)[C@H](CC(N)=O)NC(=O)[C@H](CC(N)=O)NC(=O)[C@H](CCCCN)NC(=O)[C@H](Cc1ccc(O)cc1)NC(=O)[C@H](Cc1ccccc1)NC(=O)[C@H](CCCCN)NC(=O)[C@H](CCC(=O)O)NC(=O)[C@@H](N)CCCCN)C(=O)N[C@@H](Cc1ccc(O)cc1)C(=O)O` [RIPR_0378] (H-KEKFYKNNLY-OH): 919000 nM.
As to `C[C@H](NC(=O)[C@H](CCCNC(=N)N)NC(=O)[C@H](CCCCN)NC(=O)[C@H](CCC(=O)O)NC(=O)[C@H](CCC(=O)O)NC(=O)CN)C(=O)N[C@@H](CO)C(=O)N[C@@H](Cc1c[nH]cn1)C(=O)N[C@H](C(=O)N[C@H](C(=O)O)[C@@H](C)O)[C@@H](C)O` [AMA1_604] (H-GEEKRASHTT-OH), the IC50 turned out to be 10000 nM.
On the same count and under the same terms, next, `CC[C@H](C)[C@H](NC(=O)[C@H](CCCNC(=N)N)NC(=O)[C@H](CC(N)=O)NC(=O)[C@H](Cc1ccccc1)NC(=O)[C@@H](NC(=O)[C@H](Cc1c[nH]cn1)NC(=O)[C@H](CCCCN)NC(=O)[C@H](CCSC)NC(=O)[C@H](CCC(=O)O)NC(=O)[C@@H](N)CCCCN)[C@@H](C)CC)C(=O)O` [RH5_415] (H-KEMKHIFNRI-OH): 39200 nM.
`CC[C@H](C)[C@H](NC(=O)[C@@H](NC(=O)[C@@H](NC(=O)[C@H](CCC(=O)O)NC(=O)[C@H](CO)NC(=O)[C@H](CC(N)=O)NC(=O)[C@H](CC(N)=O)NC(=O)[C@H](Cc1ccc(O)cc1)NC(=O)[C@H](CCC(=O)O)NC(=O)[C@@H](N)CCCCN)[C@@H](C)CC)[C@@H](C)O)C(=O)O` [CYRPA_142] (H-KEYNNSEITI-OH): the IC50 came out at 11000 nM.
The same measure, in the same setting: next, `CC(C)C[C@H](NC(=O)[C@H](CO)NC(=O)[C@H](CS)NC(=O)[C@@H]1CCCN1C(=O)[C@H](Cc1ccccc1)NC(=O)[C@H](CC(N)=O)NC(=O)[C@H](CC(N)=O)NC(=O)[C@H](CCC(=O)O)NC(=O)[C@@H](N)C(C)C)C(=O)N[C@@H](Cc1ccc(O)cc1)C(=O)O` [AMA1_437] (H-VENNFPCSLY-OH): 6020 nM.

A further experiment concerns the target HLA-A*0301 (Homo sapiens, UniProt P04439). The experiment in a line: biochemical. To be noted: allele A*0301; fluorescence polarization competition; read-out: IC50 (nM), in vitro HLA binding affinity. Format: binding. In outline: as §1
Take `CC(C)C[C@H](NC(=O)[C@H](CO)NC(=O)[C@H](CS)NC(=O)[C@@H]1CCCN1C(=O)[C@H](Cc1ccccc1)NC(=O)[C@H](CC(N)=O)NC(=O)[C@H](CC(N)=O)NC(=O)[C@H](CCC(=O)O)NC(=O)[C@@H](N)C(C)C)C(=O)N[C@@H](Cc1ccc(O)cc1)C(=O)O` [AMA1_437] (H-VENNFPCSLY-OH): the IC50 was 85400 nM.
